US4098706A, “Lubricating agents for thermoplastic materials and process for preparing the same” (Sapchim-Fournier-Cimag, priority 1975, dated 1978)
Read-outs that look alike come from different tables or passages of the source.

Key:
[1] = Extractibility of the lubricating agents from bottles by solvents simulating food and drink, 49° C; type: physicochemical
Protocol: The lubricating agents according to the invention may be used to lubricate polymers which are intended for the manufacture of packaging and containers for food and drink and its was therefore necessary, in spite of their low toxicity, to determine their extractibility by various solvents simulating food and drink, namely water, ethanol-water 50/50, an aqueous solution of acetic acid (3%) and heptane.
This study was carried out in accordance with the requirements of the Food and Drug Administration (U.S.A.).
The extractions were performed in semi-rigid bottles, prepared with the resins given hereabove.
The ratio of the volume of solvent to the surface of plastic material exposed to extraction was about […], taking into account the geometric characteristics of the bottles.
Heating--: A thermostated oven for the non-inflammable solvents (water and acetic acid) A thermostated water-bath for the inflammable solvents (alcohol and heptane)
This was, in each case, intentionally longer than that which would have given stable maximum values.
The following periods of duration were in fact, observed:
Acetic acid (3%) : 15 days
Aqueous ethanol: 3 to 4 days
The quantity of lubricating agent extracted was determined by thin layer chromatography, by comparison with a standard scale.
A blank trial was carried out with control bottles containing no lubricating agent and a purely negative result was obtained.
The amounts of lubricating agent determined are expressed in μg/ml of extraction solvent or, which is the same, per cm^2 of surface submitted to extraction.

[2] = Tendency for bubbles to appear in the polyvinyl chlorides containing the lubricating agents; type: physicochemical
Text: It is known that a release of gaz during preparation of the resin and particularly at the moment of extrusion or blowing is a grave disadvantage when manufacturing objects such as bottles because it may lead to the formation of visible bubbles in the plastic.

[3] = Formula 915, acetic acid (3%), 15 days
[4] = Formula 915, aqueous ethanol, 3 to 4 days
[5] = Formula 913, acetic acid (3%), 15 days
[6] = Formula 913, aqueous ethanol, 3 to 4 days
[7] = Formula 914, acetic acid (3%), 15 days
[8] = Formula 914, aqueous ethanol, 3 to 4 days

Compound: CCCCCCCCCCCCCCCCCCCCCC(=O)OCC(C)OC(=O)CCCCCCCCCCCCCCCCCCCCC (stereo not shown) [Compound 1, 1,2-propanediol dibehenate]
- Amount of lubricating agent extracted [1, 3]: 0.13 µg/mL
- Amount of lubricating agent extracted [1, 4]: 0.13 µg/mL
- Amount of lubricating agent extracted ([1]; Formula 915, heptane, 3 days): 0.26 µg/mL
- Amount of lubricating agent extracted ([1]; Formula 915, water, 15 days): 0.13 µg/mL
- Observations (release of gas) [2]: No release
- Temperature at which bubbles appear [2]: 250 °C
- Toxic symptoms (mice; mouse, in vivo, po): none

Compound: CCCCCCCCCCCCCCCCCCCCCC(=O)OCCSCCOC(=O)CCCCCCCCCCCCCCCCCCCCC [Compound 2, Thiodiglycol dibehenate]
- Amount of lubricating agent extracted [1, 5]: 0.4 µg/mL
- Amount of lubricating agent extracted [1, 6]: 0.6 µg/mL
- Amount of lubricating agent extracted ([1]; Formula 913, heptane, 3 days): 1.3 µg/mL
- Amount of lubricating agent extracted ([1]; Formula 913, water, 15 days): 0.13 µg/mL
- Amount of lubricating agent extracted [1, 7]: 0.13 µg/mL
- Amount of lubricating agent extracted [1, 8]: 0.13 µg/mL
- Amount of lubricating agent extracted ([1]; Formula 914, heptane, 3 days): 0.8 µg/mL
- Amount of lubricating agent extracted ([1]; Formula 914, water, 15 days): 0.13 µg/mL
- Amount of lubricating agent extracted [1, 3]: 0.13 µg/mL
- Amount of lubricating agent extracted [1, 4]: 0.13 µg/mL
- Amount of lubricating agent extracted ([1]; Formula 915, heptane, 3 days): 0.6 µg/mL
- Amount of lubricating agent extracted ([1]; Formula 915, water, 15 days): 0.13 µg/mL
- Toxic symptoms (mice; oral, mice): none

Compound: CCCCCCCCCCCCCCCCCCCCCC(=O)OCCOCCOCCOC(=O)CCCCCCCCCCCCCCCCCCCCC [Compound 4, Triethyleneglycol dibehenate]
- Toxic symptoms (mice; mouse, in vivo, po): none

Compound: CCCCCCCCCCCCCCCCCCCCCC(=O)OCCCCOC(=O)CCCCCCCCCCCCCCCCCCCCC [Compound 7, 1,4-butanediol dibehenate]
- Amount of lubricating agent extracted [1, 7]: 0.13 µg/mL
- Amount of lubricating agent extracted [1, 8]: 0.13 µg/mL
- Amount of lubricating agent extracted ([1]; Formula 914, heptane, 3 days): 0.8 µg/mL
- Amount of lubricating agent extracted ([1]; Formula 914, water, 15 days): 0.13 µg/mL
- Toxic symptoms (mice; mouse, in vivo, po): none

Compound: CCCCCCCCCCCCCCCCCCCCCC(=O)OCC(COC(=O)CCCCCCCCCCCCCCCCCCCCC)OC(=O)CCCCCCCCCCCCCCCCCCCCC [Compound 8, Glyceryl tribehenate]
- Observations (release of gas) [2]: Slight release
- Temperature at which bubbles appear [2]: 230 °C
- Toxic symptoms (mice; mouse, in vivo, po): none

Compound: CCCCCCCCCCCCCCCCCCCCCC(=O)OCC(COC(=O)CCCCCCCCCCCCCCCCCCCCC)(COC(=O)CCCCCCCCCCCCCCCCCCCCC)COC(=O)CCCCCCCCCCCCCCCCCCCCC [Compound 9, Pentaerythrite tetrabehenate]
- Amount of lubricating agent extracted [1, 5]: 0.26 µg/mL
- Amount of lubricating agent extracted [1, 6]: 0.13 µg/mL
- Amount of lubricating agent extracted ([1]; Formula 913, heptane, 3 days): 0.26 µg/mL
- Amount of lubricating agent extracted ([1]; Formula 913, water, 15 days): 0.13 µg/mL
- Observations (release of gas) [2]: Slight release
- Temperature at which bubbles appear [2]: 195 °C
- Toxic symptoms (mice; mouse, in vivo, po): none

Compound: CCCCCCCCCCCCCCCCCCCCCC(=O)O [calcium behenate]
- Toxic symptoms (mice; mouse, in vivo, po): none
